Laboratory results from patent US20040071683A1, “Methods for treating pervasive development disorders” (priority 1999, published 2004).
No end group written: not given here.

Tests used:
fecal chymotrypsin = assay: Fecal Chymotrypsin Test after secretin infusion in autistic children (Experiments 1 and 2); type: in vivo
Method: In this experiment, 16 children diagnosed as having autism were administered the following Fecal Chymotrypsin Test in accordance with an embodiment of the invention. First, approximately 2 grams of stool were collected from each child and placed in a sterile container (although it is to be understood that any quantity of stool may be collected, as 2 grams of stool is not a required amount). Each stool sample was then analyzed using, e.g., an enzymatic photospectrometry analysis as is known by those skilled in the art, to determine the level of fecal chymotrypsin in the stool. Although the enzymatic photospectrophotometry process is preferred, any suitable conventional method may be used for measuring the fecal chymotrypsin levels. The measured chymotrypsin levels of the 16 autistic children are illustrated in FIG. 13.
After determining the chymotrypsin levels of the stools, each of these levels were compared with threshold chymotrypsin levels to determine if the child was likely to benefit from secretin administration. By way of example, with the fecal chymotrypsin tests of the stool samples being performed at 30° C., normal levels of chymotrypsin are deemed to lie above 8.4 U/gram, whereas pathologically abnormal levels are deemed to lie below 4.2 U/gram. In addition, chymotrypsin levels between 8.4 U/gram and 4.2 U/gram are considered equivocal, and further testing of the individual's fecal chymotrypsin levels over a period of time should be performed.
(§1) For each of the 16 autistic children tested, a preferred secretin infusion process according to the present invention was performed involving the administering of 1 U/kg of body weight of Secretin-Ferring for a period of nine months at intervals of approximately 6 weeks. In addition, another CARS test was administered to each of the 16 autistic children 3 weeks post secretin administration to determine if their autism had changed post infusion.
A preferred secretin infusion process includes the initial step of prepping an arm of the candidate child with an IV injection of saline. A test dose of 1U of Secretin-Ferring is then administered to the child. Approximately one minute after infusion, the child is examined for signs of allergic reaction including rash, increased heart rate, and increase of blood pressure. […] Subsequently, each child receives a 1 U/kg of body weight infusion of Secretin-Ferring approximately every 6 weeks for 9 months. […]
In this experiment, 37 autistic children with abnormal fecal chymotrypsin levels were administered secretin over the course of 6 months using the secretin infusion process described above. Their fecal chymotrypsin (FC) levels were measured weekly using the fecal chymotrypsin test described above.

autistic children = assay: CARS (Childhood Autism Rating Scale) test pre- and post-secretin administration (Experiment 1); type: in vivo; settings: 16 autistic children
Method: Upon determining that a given child was likely to benefit from secretin administration based on the results of the fecal chymotrypsin test, the child was administered a CARS (Childhood Autism Rating Scale) test prior to being scheduled for secretin infusion.
as §1
A preferred secretin infusion process includes the initial step of prepping an arm of the candidate child with an IV injection of saline. A test dose of 1U of Secretin-Ferring is then administered to the child. Approximately one minute after infusion, the child is examined for signs of allergic reaction including rash, increased heart rate, and increase of blood pressure. […] Subsequently, each child receives a 1 U/kg of body weight infusion of Secretin-Ferring approximately every 6 weeks for 9 months. It is to be understood that any commercially available form of secretin may be used.

[1] = tested on: children diagnosed with Autism; settings: secretin given as diagnostic procedure during upper gastrointestinal endoscopy; Horvath et al. 1998; cited from earlier work

## secretin (HSDGTFTSELSRLRDSARLQRLLQGLV; ends and bridges not checked; UniProt P63298 33-59, looked up) [a gastrointestinal peptide hormone]
Fecal chymotrypsin; 6 Months Post-Secretin Administration, of 37 autistic children (0 pre-secretin), equivocal between 8.4 and 4.2 U/gram
  # Autistic Children w/ Equivocal FC levels: 2
Fecal chymotrypsin; 6 Months Post-Secretin Administration, of 37 autistic children (0 pre-secretin), normal above 8.4 U/gram
  # Autistic Children w/ normal FC levels: 34
Fecal chymotrypsin; 6 Months Post-Secretin Administration, of 37 autistic children (37 abnormal pre-secretin), abnormal below 4.2 U/gram
  # Autistic Children w/ Abnormal FC levels: 1
Fecal chymotrypsin; each of 16 autistic children, approximately one week after first infusion of 1 U/kg Secretin-Ferring IV, FIG. 14 vs FIG. 13
  fecal chymotrypsin level post-secretin administration compared with pre-secretin: increased
Autistic children; 3 weeks post infusion
  CARS fear component post-secretin: increased
Autistic children; 3 weeks post infusion, FIGS. 2-12
  CARS component scores post-secretin (all except fear): demonstrated improvement
Autistic children; approximately 3 weeks after first secretin administration, FIG. 1
  overall CARS scores post-secretin vs pre-secretin: overall decrease
[1]
  symptoms associated with Autism after secretin administration: ameliorating the symptoms associated with Autism
